According to publication PMC8198056 (Molecules, 2021):
Numbered stars: 1 amine (or outer) side, 2 acyl side, 3 side chain; on linkers, the order of the positions; unused ones are H or OH. Square brackets hold non-standard residues; d marks the D form. Peptide text beside a SMILES is read from it. X1 = O=C1[C@@H](N[*:1])Cc2ccccc2CN1CCC(=O)[*:2]; Dmt = Cc1cc(O)cc(C)c1C[C@H](N)C(=O)O

How the values were obtained:
mice [1] = experiment: Naloxone-precipitated withdrawal syndrome; settings: 15.5 µmol/kg s.c. daily 5 days; naloxone 1 mg/kg s.c.
mice [2] = experiment: Conditioned place preference (CPP); settings: 4-day conditioning
mice [3] = experiment: Formalin test (formalin-induced acute inflammatory pain); settings: for %Antinociceptive effect Phase I: Phase I 0-5 min; for %Antinociceptive effect Phase II: Phase II 15-60 min
mice [4] = experiment: Open-field test (spontaneous locomotor activity)
mice [5] = experiment: CFA-induced chronic inflammatory pain, mechanical sensitivity (von Frey test); format: in vivo, mouse
mice [6] = experiment: CFA-induced chronic inflammatory pain, thermal sensitivity (Hargreaves test); format: in vivo, mouse
rats [7] = test system: rats; design: method as in PMID 27035422, PMID 28135212; settings: i.v. at equianalgesic doses to rats; cited from earlier work
human DOR [8] = target: T1, human DOR (Homo sapiens, UniProt P41143); experiment: [35S]GTPγS binding assay, CHO-hDOR membranes; format: biochemical
T1 construct: expressed in transfected cells; host or cells: CHO (CHO-hDOR; gift of Lawrence Toll, SRI International)

human KOR [9] = target: T2, human KOR (Homo sapiens, UniProt P41145); experiment: [35S]GTPγS binding assay, CHO-hKOR membranes; format: biochemical
T2 construct: expressed in transfected cells; host or cells: CHO (CHO-hKOR; gift of Lawrence Toll, SRI International)

rats [10] = settings: acute i.t. administration in rats; cited from earlier work
human DOR [11] = target: T1, human DOR; experiment: Competitive radioligand binding assay ([3H]diprenorphine), CHO-hDOR membranes; settings: CHO-hOR membranes, mean ± SEM, read-out: Receptor Binding Ki
human KOR [12] = target: T2, human KOR; experiment: Competitive radioligand binding assay ([3H]U69,593), CHO-hKOR membranes; settings: [3H]U69,593, CHO-hOR membranes, mean ± SEM, read-out: Receptor Binding Ki
[13] = design: method as in PMID 27035422; settings: cited from earlier work
human NOP receptor = target: T3, human NOP receptor (Homo sapiens, UniProt P41146); experiment: [35S]GTPγS binding assay, CHO-hNOP membranes; format: biochemical; settings: relative to maximum effect of nociceptin (100%)
T3 construct: expressed in transfected cells; host or cells: CHO (CHO-hNOP; gift of Lawrence Toll, SRI International)

human MOR [14] = target: T4, human MOR (Homo sapiens, UniProt P35372); experiment: [35S]GTPγS binding assay, CHO-hMOR membranes; format: biochemical
T4 construct: expressed in transfected cells; host or cells: CHO (CHO-hMOR; gift of Lawrence Toll, SRI International)

human MOR [15] = target: T4, human MOR; experiment: Competitive radioligand binding assay ([3H]DAMGO), CHO-hMOR membranes; settings: CHO-hOR membranes, mean ± SEM, read-out: Receptor Binding Ki
non-human primates = test system: non-human primates; design: method as in PMID 30158150; settings: cited from earlier work
mice [16] = test system: mice; design: method as in PMID 17132815, PMID 23652222; settings: cited from earlier work

SMILES: CN1CC[C@]23c4c5ccc(O)c4O[C@H]2[C@@H](O)C=C[C@H]3[C@H]1C5 [morphine, reference compound]
- Global withdrawal score vs saline (mice [1]): significantly increased withdrawal
- CPP response vs saline (mice [2]; 15.5 µmol/kg s.c.): significant CPP response
- %Antinociceptive effect Phase I (mice [3]; 3.11 µmol/kg s.c.): 19.4 ± 6.7%
- %Antinociceptive effect Phase II (mice [3]; 3.11 µmol/kg s.c.): 24.8 ± 11.6%
- %Antinociceptive effect Phase I (mice [3]; 7.77 µmol/kg s.c.): 32.6 ± 5.7%
- %Antinociceptive effect Phase II (mice [3]; 7.77 µmol/kg s.c.): 57.5 ± 8.3%
- Pain response counted between 15 and 60 min (mice [3]; 15.5 µmol/kg s.c.): almost complete inhibition of the pain response
- %Antinociceptive effect Phase I (mice [3]; 15.5 µmol/kg s.c.): 38.4 ± 10.9%
- %Antinociceptive effect Phase II (mice [3]; 15.5 µmol/kg s.c.): 79.1 ± 7.5%
- Spontaneous locomotor activity (distance traveled) vs saline (mice [4]; 15.5 µmol/kg s.c. daily, day 1 to day 4): significant increase in the distance traveled
- Time points of significant effect on mechanical stimulation vs saline (mice [5]; 15.5 µmol/kg s.c.): 30 min and one hour
- % reversal of mechanical sensitivity (mice [5]; 15.5 µmol/kg s.c., 30 min): 63.4%
- % reversal of mechanical sensitivity (mice [5]; 15.5 µmol/kg s.c., 1 h): 50.6%
- % reversal of mechanical sensitivity (mice [5]; 15.5 µmol/kg s.c., 2 h): 18.9%
- % reversal of mechanical sensitivity (mice [5]; 15.5 µmol/kg s.c., 3 h): 6.62%
- % reversal of mechanical sensitivity (mice [5]; 15.5 µmol/kg s.c., 4 h): 1.57%
- % reversal of mechanical sensitivity (mice [5]; 15.5 µmol/kg s.c., 5 h): 11.7%
- % reversal of mechanical sensitivity (mice [5]; 15.5 µmol/kg s.c., 6 h): -2.29%
- % reversal of mechanical sensitivity (mice [5]; 15.5 µmol/kg s.c., 24 h): 1.68%
- Time of peak antihyperalgesic effect (mice [6]; 15.5 µmol/kg s.c.): 30 min
- Time points of significant reduction in thermal hyperalgesia vs saline (mice [6]; 15.5 µmol/kg s.c.): 30 min and one hour
- % reversal of thermal sensitivity (mice [6]; 15.5 µmol/kg s.c., 30 min): 68.6%
- % reversal of thermal sensitivity (mice [6]; 15.5 µmol/kg s.c., 1 h): 36.1%
- % reversal of thermal sensitivity (mice [6]; 15.5 µmol/kg s.c., 2 h): 19.6%
- % reversal of thermal sensitivity (mice [6]; 15.5 µmol/kg s.c., 3 h): 13.8%
- % reversal of thermal sensitivity (mice [6]; 15.5 µmol/kg s.c., 4 h): -1.96%
- % reversal of thermal sensitivity (mice [6]; 15.5 µmol/kg s.c., 5 h): 0.43%
- % reversal of thermal sensitivity (mice [6]; 15.5 µmol/kg s.c., 6 h): -0.40%
- % reversal of thermal sensitivity (mice [6]; 15.5 µmol/kg s.c., 24 h): 0.00%

SMILES: CC[C@H](C)[C@H](NC(=O)[C@H](CCCNC(=N)N)NC(=O)[C@H](Cc1ccc(O)cc1)NC(=O)[C@H](Cc1ccc(O)cc1)NC(=O)[C@H](CCCNC(=N)N)NC(=O)CCN1Cc2ccccc2C[C@H](NC(=O)[C@@H](CCCNC(=N)N)NC(=O)[C@@H](N)Cc2c(C)cc(O)cc2C)C1=O)C(=O)N[C@@H](CCCCN)C(N)=O [KGNOP1, H-Dmt-D-Arg-Aba-β-Ala-Arg-Tyr-Tyr-Arg-Ile-Lys-NH2] (H-[Dmt][dR][X1]RYYRIK-NH2)
- Respiratory depression in contrast to morphine (rats [7]): significantly less respiratory depression
- EC50 (human DOR [8]): 51.6 ± 17.8 nM
- Emax (human DOR [8]; relative to maximum effect of DPDPE (100%)): 106 ± 3%
- EC50 (human KOR [9]): 112 ± 32 nM
- Emax (human KOR [9]; relative to maximum effect of U69,593 (100%)): 37 ± 3%
- Effect on evoked locomotor activity in the rotarod test (rats [10]): lack of KGNOP1′s effect on the evoked locomotor activity
- CPP response vs saline (mice [2]; 1.22 and 2.44 µmol/kg s.c.): no significant preference at any tested dose
- %Antinociceptive effect Phase I (mice [3]; 0.12 µmol/kg s.c.): 33.9 ± 3.8%
- %Antinociceptive effect Phase II (mice [3]; 0.12 µmol/kg s.c.): 2.3 ± 11.1%
- %Antinociceptive effect Phase I (mice [3]; 0.49 µmol/kg s.c.): 33.7 ± 9.3%
- %Antinociceptive effect Phase II (mice [3]; 0.49 µmol/kg s.c.): 51.8 ± 9.7%
- Pain response counted between 15 and 60 min (mice [3]; 1.22 µmol/kg s.c.): almost complete inhibition of the pain response
- %Antinociceptive effect Phase I (mice [3]; 1.22 µmol/kg s.c.): 55.6 ± 7.3%
- %Antinociceptive effect Phase II (mice [3]; 1.22 µmol/kg s.c.): 71.4 ± 6.8%
- Antinociceptive effect after pre-treatment with SB-612111 (mice [3]; KGNOP1 1.22 µmol/kg s.c., SB-612111 6.6 µmol/kg s.c., -30 min, Phase I and II): significantly reversed the antinociceptive response
- Antinociceptive effect after pre-treatment with naltrexone (mice [3]; KGNOP1 1.22 µmol/kg s.c., naltrexone 2.6 µmol/kg s.c., -15 min, Phase I and II): significant antagonism of the antinociceptive effect
- Antinociceptive ED50 (95% CL), Phase I (mice [3]; s.c., acute nociceptive Phase I (0-5 min)): 1.17 µmol/kg
- Antinociceptive ED50 (95% CL), Phase II (mice [3]; s.c., inflammatory Phase II (15-60 min)): 0.55 µmol/kg
- Spontaneous locomotor activity (distance traveled) vs saline (mice [4]; 1.22 µmol/kg s.c. daily for 4 days): no significant alteration in locomotion
- Spontaneous locomotor activity (distance traveled) vs saline (mice [4]; 2.44 µmol/kg s.c., only at day 1): significant decrease in locomotion
- Time points of significant effect on mechanical stimulation vs saline (mice [5]; 1.22 µmol/kg s.c.): one hour
- % reversal of mechanical sensitivity (mice [5]; 1.22 µmol/kg s.c., 30 min): -6.71%
- % reversal of mechanical sensitivity (mice [5]; 1.22 µmol/kg s.c., 1 h): 65.4%
- % reversal of mechanical sensitivity (mice [5]; 1.22 µmol/kg s.c., 2 h): 19.1%
- % reversal of mechanical sensitivity (mice [5]; 1.22 µmol/kg s.c., 3 h): -8.73%
- % reversal of mechanical sensitivity (mice [5]; 1.22 µmol/kg s.c., 4 h): 21.1%
- % reversal of mechanical sensitivity (mice [5]; 1.22 µmol/kg s.c., 5 h): -0.50%
- % reversal of mechanical sensitivity (mice [5]; 1.22 µmol/kg s.c., 6 h): -12.9%
- % reversal of mechanical sensitivity (mice [5]; 1.22 µmol/kg s.c., 7 h): -8.30%
- % reversal of mechanical sensitivity (mice [5]; 1.22 µmol/kg s.c., 8 h): -2.42%
- % reversal of mechanical sensitivity (mice [5]; 1.22 µmol/kg s.c., 24 h): -8.66%
- Ki (human DOR [11]): 12.2 ± 3.5 nM
- Ki (human KOR [12]): 13.4 ± 4.3 nM
- Half-life time t1/2 in human plasma [13]: 9.77 h
- Emax (human NOP receptor): 99 ± 8%
- EC50 (human MOR [14]): 2.5 ± 0.81 nM
- Emax (human MOR [14]; relative to maximum effect of DAMGO (100%)): 92 ± 4%
- Ki (human MOR [15]): 0.42 ± 0.08 nM
- Time span of significant inhibition of thermal hyperalgesia vs saline (mice [6]; 0.49 µmol/kg s.c.): 30 to 240 min
- % reversal of thermal sensitivity (mice [6]; 0.49 µmol/kg s.c., 30 min): 23.5%
- % reversal of thermal sensitivity (mice [6]; 0.49 µmol/kg s.c., 1 h): 38.1%
- % reversal of thermal sensitivity (mice [6]; 0.49 µmol/kg s.c., 2 h): 59.8%
- % reversal of thermal sensitivity (mice [6]; 0.49 µmol/kg s.c., 3 h): 40.2%
- % reversal of thermal sensitivity (mice [6]; 0.49 µmol/kg s.c., 4 h): 25.4%
- % reversal of thermal sensitivity (mice [6]; 0.49 µmol/kg s.c., 5 h): 15.7%
- % reversal of thermal sensitivity (mice [6]; 0.49 µmol/kg s.c., 6 h): 9.3%
- % reversal of thermal sensitivity (mice [6]; 0.49 µmol/kg s.c., 7 h): -1.46%
- % reversal of thermal sensitivity (mice [6]; 0.49 µmol/kg s.c., 8 h): 6.12%
- % reversal of thermal sensitivity (mice [6]; 0.49 µmol/kg s.c., 24 h): -3.79%
- Time of maximum efficacy, Hargreaves test (mice [6]; 1.22 µmol/kg s.c.): two hours
- Time span of significant inhibition of thermal hyperalgesia vs saline (mice [6]; 1.22 µmol/kg s.c.): 30 to 360 min
- % reversal of thermal sensitivity (mice [6]; 1.22 µmol/kg s.c., 30 min): 31.9%
- % reversal of thermal sensitivity (mice [6]; 1.22 µmol/kg s.c., 1 h): 54.4%
- % reversal of thermal sensitivity (mice [6]; 1.22 µmol/kg s.c., 2 h): 98.6%
- % reversal of thermal sensitivity (mice [6]; 1.22 µmol/kg s.c., 3 h): 78.6%
- % reversal of thermal sensitivity (mice [6]; 1.22 µmol/kg s.c., 4 h): 58.2%
- % reversal of thermal sensitivity (mice [6]; 1.22 µmol/kg s.c., 5 h): 26.0%
- % reversal of thermal sensitivity (mice [6]; 1.22 µmol/kg s.c., 6 h): 26.7%
- % reversal of thermal sensitivity (mice [6]; 1.22 µmol/kg s.c., 7 h): 10.2%
- % reversal of thermal sensitivity (mice [6]; 1.22 µmol/kg s.c., 8 h): 9.15%
- % reversal of thermal sensitivity (mice [6]; 1.22 µmol/kg s.c., 24 h): 6.72%
- Duration of reversal of CFA-induced thermal hyperalgesia (mice [6]; s.c.): up to 6 h

SMILES: CC(C)C1CCC(N2CCC3(CC2)C(=O)N(CCNS(N)(=O)=O)Cc2ccccc23)CC1 (stereo not drawn) [AT-121]
- Antinociception and side effects (non-human primates): produced antinociception with reduced respiratory depression and physical dependence

SMILES: O=C1Cc2ccccc2N1C1CCN(C2C3CCCC2CCC3)CC1 (stereo not drawn) [SR16435, 1-(1-(bicyclo [3.3. 1]nonan-9-yl)piperidin-4-yl) indolin-2-one]
- CPP in mice (mice [16]): induced CPP in mice to the same extent as morphine
